Laboratory results: US20250127740A1, “COMPOSITION CONTAINING 3-HYDROXYANTHRANILIC ACID AND COMPOUNDS THAT ALTER IRON HOMEOSTASIS AND METHOD OF ITS USE” (priority 2021, published 2025)

Legend:
P. aeruginosa [1] = assay: Inhibition of P. aeruginosa growth in liquid media (OD 600 nm) and CFUs on solid media; assay type: cell-based; conditions: different dosages, single compound
Method: (§1) 3HAA was tested for its ability to negatively impact bacterial growth. 3HAA was tested at different dosages for inhibition of E. coli and P. aeruginosa growth in liquid media (measured by optical density at 600 nm) and colony forming units (CFUs) on solid media.
(§2) Deferoxamine (DFO) was also tested for its ability to impact bacterial growth. Deferoxamine was tested at different dosages for inhibition of E. coli and P. aeruginosa growth in liquid media (measured by optical density at 600 nm) and CFUs on solid media.

E. coli [2] = assay: Colony size of E. coli on plates; assay type: cell-based; conditions: for effect on colony size (E. coli): 1 mM 3HAA or 8 mM FAC alone
Method: To test the effects of 3HAA, DFO and FAC on colony size, colony size was measured for E. coli in plates containing 1 mM 3HAA, 15 uM DFO, and 8 mM FAC alone and in combination.

E. coli [3] = assay: Colony formation (CFUs) of E. coli on culture plate; assay type: cell-based
E. coli [4] = assay type: cell-based; conditions: different dosages; liquid media OD 600 nm and CFUs on solid media; single compound
Method: as §1, §2

E. coli infection = assay: Infection of C. elegans challenged with fluorescently labeled E. coli; assay type: in vivo; conditions: fluorescence microscopy over 7 days
Source text: Infection was monitored using fluorescence microscopy over 7 days. Heatmap of infection progression of individual animals over days—purple 32 not infected, red=high infection.

bacterial growth = assay: Growth lag-time in liquid media; assay type: cell-based; conditions: 1 mM 3HAA, 15 uM DFO, alone or combined
Method: By contrast, 1 mM 3HAA alone increased lag-time by 6% individually. 15 uM DFO alone increased lag-time by 4% individually. Combination of 1 mM 3HAA with 15 uM DFO provided multiple fold impact on growth inhibition that is statistically significant to either single treatment alone.

E. coli [5] = assay: Pre-treatment of E. coli in liquid media, then colony count on DFO+3HAA plates; assay type: cell-based; conditions: pretreatment 1 mM 3HAA or 15 uM DFO, 16 hr at 37 degrees
Method: E. coli inoculates were grown in liquid media containing either control (no additives), 1 mM 3HAA or 15 uM DFO for 16 hr at 37 degrees with shaking. The cultures were spotted to either Control plates (no additives) or plate containing DFO+3HAA and left to dry at room temperature. After incubated at 37 degrees for 16 hours, colonies were counted.

P. aeruginosa [6] = assay: Colony formation (CFUs) of P. aeruginosa on culture plate; assay type: cell-based; conditions: 1 mM 3HAA and 15 uM DFO alone or in combination
Method: To test the effects of 3HAA and DFO on colony formation of P. aeruginosa, 1 mM 3HAA and 15 uM DFO alone or in combination were added to culture plate containing P. aeruginosa.

C. elegans = assay type: in vivo; conditions: added to culture medium of haao-1 knockout worms (elevated endogenous 3HAA)
Source text: Using the haao-1 knockout strain exposes the animals, but not their bacterial food source, to 3HAA.

[7] = 1 mM 3HAA and 8 mM FAC alone or in combination

## ferric ammonium citrate [FAC]
P. aeruginosa [1]
  impact on growth of P. aeruginosa: very little impact
E. coli [2]
  effect on colony size (E. coli): increased colony size
E. coli [3]; [7]
  impact on colony formation (E. coli): no significant impact was observed
E. coli [4]
  impact on growth of E. coli: very little impact
E. coli infection; haao-1 knockout worms (high endogenous 3HAA)
  protection from E. coli infection: This protection was enhanced
E. coli infection; wild type worms
  protection from E. coli infection: protected from infection

## Nc1c(O)cccc1C(=O)O [3HAA, 3-hydroxyanthanilic acid]
Bacterial growth
  increase in growth lag-time: 6%
P. aeruginosa [1]
  impact on growth of P. aeruginosa: negatively affects growth of both E. coli and P. aeruginosa, but only at high doses
E. coli [2]
  effect on colony size (E. coli): increased colony size
E. coli [5]
  sensitization of bacteria to the 3HAA and DFO combination by pretreatment: sensitizes bacteria to the combination of 3HAA and DFO
E. coli [3]; [7]
  impact on colony formation (E. coli): no significant impact was observed
E. coli [3]; 1 mM 3HAA or 15 uM DFO alone
  impact on colony formation (E. coli): Neither 1 mM 3HAA nor 15 uM DFO alone showed significant impact
P. aeruginosa [6]
  impact on colony formation (P. aeruginosa): neither affected colony formation alone
E. coli [4]
  impact on growth of E. coli: negatively affects growth of both E. coli and P. aeruginosa, but only at high doses

## CC(=O)N(O)CCCCCNC(=O)CCC(=O)N(O)CCCCCNC(=O)CCC(=O)N(O)CCCCCN [DFO, deferoxamine, reference compound]
Bacterial growth
  increase in growth lag-time: 4%
E. coli [2]; 1 mM 3HAA, 15 uM DFO, 8 mM FAC, alone or in combination
  decrease of colony size / colony area (E. coli): ~8%
C. elegans
  toxicity to C. elegans relative to wild type animals: neither the combination of DFO and elevated 3HAA (haao-1) nor the combination of FAC with elevated 3HAA (haao-1) were toxic
